Reference: patent US12281301B2, “Sequencing-based proteomics” (THE BROAD INSTITUTE, INC., priority 2018, dated 2025)
“Also recorded” adds a separate entry of the source. Peptide text beside a SMILES is read from it. * marks the point of attachment. Cbz = O=C(OCc1ccccc1)*

What was measured:
Type in all cases: cell-based, human
HEK293T cells [1] = assay: TMT labeling whole proteome mass spectrometry, drug-treated versus untreated control cells
Method: Mass spectrometry. Cells were grown and stimulated in 10 cm dishes, washed three times in cold PBS, and scraped into 1 ml 8 M urea in water per dish. Protein content of the lysates was quantified using Pierce 660 reagent and a NanoDrop spectrometer. Samples were reduced, iodoacetamide alkylated, digested with Trypsin, labeled with 10-plex TMT (VWR cat no PI90110), and combined. After SPE clean-up and volume reduction by SpeedVac, the combined sample was run on a C18 reverse phase LC using a pH 10 A buffer, and eight fractions were collected. The volume was reduced to 20 μl by SpeedVac. Each fraction was run on an EASY nLC HPLC attached to a Thermo QE-HFX mass spectrometer in nanospray configuration using a 90 minutes acquisition time. Proteins were quantified using the MaxQuant software package.
Statistical analysis. Mass spectrometry reporter intensity data were imported into Perseus software, log-2-transformed, and filtered for missing values as well as reverse peptides or potential contaminants. Data were median-subtracted and significant outliers were determined by performing two-sided unpaired t-tests, correcting for multiple testing using an FDR=5% and s0=0.1, performing 250 randomizations. PATTERNS mean protein level bin data were processed in the same way except without the filtering and normalization steps. Volcano plots were generated using the Perseus software, and all other plots were created using custom code.

HEK293T cells [2] = assay: Immunoblotting validation of predicted drug-regulated proteins; conditions: time points after drug treatment
Method: Immunoblotting. Cells were lysed in 6-well plates in 400 μl 2×LDS buffer (Thermo) supplemented with 2×Bolt reducing agent (Thermo), heated to 95° C. for 15 minutes, and cooled on ice. 9 μl lysate was loaded per lane of Bolt 4-12% Bis-Tris Plus gels (Thermo) and run at 100 V for 1:15 h. Blotting was performed using the iBlot PVDF kit (Thermo) and program P-3 for 4 minutes. After blocking for 1 h in TBST 5% BSA, primary antibodies were bound over night at 4° C. in TBST 5% BSA. After triple washing, HRP-conjugated secondary antibodies (Cell Signaling Technology) were bound at 1:5000 dilution in TBST 5% BSA for 1 h at room temperature. Blots were imaged using Pierce ECL (Thermo) on a Chemidoc luminescence imager (Biorad). Primary antibodies used were: RBM39 clone 4G8 (Novus Biologicals), DDIT4 clone EPR18716 (Abcam), BRD2 clone D89B4 (Cell Signaling Technology), RRM2 clone 1E1 (Sigma), HRP-coupled beta-Actin clone 13E5 (Cell Signaling Technology), and cell cycle antibody cocktail (ab136810, Abcam).

[3] = tested on: library of tagged HEK293T cells; assay: SBP/PATTERNS protein quantification (FACS binning and tag/barcode sequencing) of drug-treated versus untreated control cells; conditions: for number of proteins significantly affected, by PATTERNS: 6 hours stated for Bortezomib
Method: Library-scale RNP-mediated gene tagging. On day one, 18 million HEK293T NeoR-KO cells were plated per 15-cm dish into 32 dishes. On day two, 4 ml of scaled-up transfection mix (see above) were gently added per dish. On day seven, cells were trypsinized and re-plated in media containing 300 μg/ml G418 (Invivogen). The selection media was changed every 4-8 days. On day 25, the library was pre-enriched for detectable fluorescence by FACS sorting, gating on the top-30% mNeon-positive population. The library was expanded for a week and frozen for future use.
Transposition-based Tag Integration Site Sequencing (TTISS). 800,000 cells were resuspended in 80 μl direct lysis buffer (1 mM CaCl2), 3 mM MgCl2, 1 mM EDTA, 1% Triton X-100, 10 mM Tris pH 7.5, 0.2 mg/ml Proteinase K), lysed at 65° C. for 10 minutes, and kept on ice or frozen at −20° C. 25 μl 5×TAPS buffer (50 mM TAPS-NaOH pH 8.5, 25 mM MgCl2), and 21 μl transposon-loaded Tn5 (16 mg/ml, produced as described in Picelli, S. et al. Tn5 transposase and tagmentation procedures for massively scaled sequencing projects. Genome Res 24, 2033-2040, doi: 10.1101/gr.177881.114 (2014), titrated batch-wise for optimal fragment sizes) were added, mixed well, and incubated at 55° C. for 10 minutes. The reaction was mixed with 625 μl buffer PB (Qiagen) and purified using a plasmid miniprep column (Qiagen). Typical yields were 15 μg per column. The tagmentation size distribution was verified on an agarose gel to range from 200 bp to 1 kb. All DNA from a single column was used as template in a 300 μl KOD extreme hot start PCR (Roche) with primers TTISS-mNeon-fwd1 and Tn5-Loading-R2 (Table 1), 12 cycles, Ta=60° C. 6 μl of PCR reaction was used as template in a secondary 50 μl KOD extreme hot start PCR with a unique combination of barcoded primers TTISS-mNeon-fwd2-D50× and TTISS-rev2-D70x(Table 1), 20 cycles, Ta=65° C. Barcoded PCRs were pooled on ice, purified using a PCR column (Qiagen), and run on an agarose gel. Products of 250 bp-1 kb were excised, purified using a gel purification kit (Qiagen), and re-purified using a PCR column (Qiagen). Samples were quantified using a NanoDrop spectrometer and sequenced using a NextSeq High Output kit (Illumina) with 30% PhiX spike-in and the following read settings: 120 cycles read 1, 25 cycles read 2, 8 cycles index 1, and 8 cycles index 2.
Alternatively, 22 bp forward (fwd) reads and 8 bp reverse (rev) reads were aligned to 1 kb windows of the human genomic sequence (hg38) upstream of gRNA target sites not allowing mismatches, and hits were filtered to be in-frame with the annotated ORF (RefSeq). For gRNA-wise protein quantification, counts per gRNA from six adjacent sorted bins were used to calculate the weighted mean bin and variance. For UMI-based evaluation, a dictionary of UMIs was created per sequencing run by calculating a 28-bit hash of nine UMI bases together with one constant donor base and 22 target bases from successfully aligned fwd reads using the same alignment parameters as for gRNA-wise protein quantification. The hash was used to count UMI occurrences and store UMI sequence/target information in an array with typically below 10 conflicts per run. UMIs were collapsed with an edit distance of 1 in order to account for sequencing errors. The UMI dictionary was used to count bin- and UMI-wise reads using the same hash function. Counts per UMI from six adjacent sorted bins were used to calculate the weighted mean bin and variance. All software was written as interactive web tools in JavaScript and will be available through GitHub.
FACS sorting. Cells were trypsinized, washed in FluoroBrite DMEM Media (Thermo) and sorted using a Sony MA900 (where not denoted otherwise) or a MoFlo Astrios sorter (for […], SKMEL28 screens) using a 488 nm laser. Cells were collected in 1 ml growth medium and kept on ice until pelleting and lysis.
De-convolution of sorted libraries using Silent Barcode Sequencing. […]

HEK293T cells [4] = assay: RNA-sequencing transcript expression, drug-treated versus untreated control cells
Method: RNA-seq. Whole-cell RNA was purified using an RNeasy Plus Mini Kit (Qiagen). Poly (A) mRNA was enriched using the Poly(A) mRNA Magnetic Isolation Module (NEB). Sequencing libraries were prepared using the NEBNext Ultra II Directional RNA Library Prep kit (NEB), quantified using a NanoDrop (Thermo), and sequenced on the NextSeq sequencer (Illumina). Reads were aligned to the human genome and gene expression was quantified using the online tool BrowserGenome.org (Schmid-Burgk, J. L. & Hornung, V. BrowserGenome.org: web-based RNA-seq data analysis and visualization. Nat Methods 12, 1001, doi: 10.1038/nmeth.3615 (2015)).

[5] = tested on: clonal mNeon-tagged reporter cell lines; assay: FACS of clonal mNeon-tagged reporter cell lines after drug stimulation
Method: (§1) Analytical flow cytometry. For optional genomic DNA staining, 1/20 volume of Hoechst 33342 (10 mg/ml, Thermo) was added to live cells for 15 minutes at 37° C. Cells were washed in PBS, trypsinized, resuspended in media, and analyzed on a CytoFLEX (Beckman Coulter) in 96-well plate mode.

MSH6 = assay: MSH6-mNeonGreen reporter cell line assayed by FACS; conditions: for MSH6-mNeonGreen expression after application of single compounds: single compounds at 125 nM for 6 h
Method: as §1

PRKDC = assay: PRKDC-mNeonGreen reporter cells assayed by FACS; conditions: 125 nM, indicated time points
Method: as §1

[6] = drug-treated vs untreated control cells

CC(C)C[C@H](NC(=O)[C@H](Cc1ccccc1)NC(=O)c1cnccn1)B(O)O [Bortezomib]
DDIT4 quantification by quantitative mass spectrometry (HEK293T cells [1]; [6]): failed to quantify | outlier / upregulated proteins by TMT whole proteome mass spectrometry (HEK293T cells [1]; drug-treated vs untreated control cells, triplicate): ATF3 and JUN; also recorded: two upregulated proteins | DDIT4 increase validated by western blot (HEK293T cells [2]): confirmed | PATTERNS hits DDIT4, ID1, ID2 and JUN validated by western blot (HEK293T cells [2]): confirmed | DDIT4 level by PATTERNS ([3]; HEK293T library, 6 hours, change may be non-specific): affected | number of proteins significantly affected, by PATTERNS ([3]; HEK293T library): 55 proteins | DDIT4 level change (mean protein expression bin) by SBP ([3]; topmost change, not statistically significant in the SBP data): +1.6 bins | DDIT4 identification as target by RNA-Seq (HEK293T cells [4]; [6]): could not identify | PATTERNS hits regulated at the transcript level (RNA-sequencing) (HEK293T cells [4]; of the 55 PATTERNS hits): only GADD45B | PATTERNS hits DDIT4, ID1, ID2 and JUN validated by FACS of reporter cell lines [5]: confirmed | DDIT4 regulation in clonal mNeon-tagged reporter cell line by FACS ([5]; stimulated for six hours): confirmed

NS(=O)(=O)c1ccc(S(=O)(=O)Nc2cccc3c(Cl)c[nH]c23)cc1 [Indisulam]
RBM39 down-regulation by TMT whole proteome mass spectrometry (HEK293T cells [1]; strong but not statistically significant hit): 2 fold | RBM39 depletion validated by western blot (HEK293T cells [2]): confirmed | effect size of the next potentially depleted protein by SBP ([3]; drug vs DMSO control, comparison with RBM39): −0.37 bins | RBM39 effect size (change of mean protein expression bin) by SBP ([3]; drug vs DMSO control, six sorted expression bins, two replicate runs): −2.1 bins | RBM39 protein level change by SBP/PATTERNS ([3]; drug-treated vs control tagged library): highly specific depletion | significantly depleted proteins by SBP/PATTERNS (specificity) ([3]; two replicates, FDR 5%): only significantly depleted protein | RBM39 RNA level (HEK293T cells [4]; [6]): no significant change | RBM39 depletion validated by FACS of a clonal reporter cell line ([5]; stimulated for six hours): confirmed

CCc1c(O)cc(O)c(C(=O)c2ccc(OCCN3CCOCC3)c(OC)c2)c1CC(=O)N(CCOC)CCOC.Cl [KW-2478]
MSH6-mNeonGreen expression after application of single compounds (MSH6): downregulation

CC(C)C[C@@H](C=O)NC(=O)[C@H](CC(C)C)NC(=O)[C@H](CC(C)C)NC(=O)OCc1ccccc1 [MG-132] (Cbz-Leu-Leu-Leu-aldehyde)
DDIT4 regulation in clonal mNeon-tagged reporter cell line by FACS ([5]; stimulated for six hours): regulated

Cc1ncsc1-c1ccc(CNC(=O)[C@@H]2C[C@@H](O)CN2C(=O)[C@@H](NC(=O)COCCOCCOCCNC(=O)C[C@@H]2N=C(c3ccc(Cl)cc3)c3c(sc(C)c3C)-n3c(C)nnc32)C(C)(C)C)cc1 [MZ-1]
BRD4 in mass spectrometry analysis (HEK293T cells [1]; BRD4 not represented in the SBP library): not statistically significant hit | BRD2 down-regulation by mass spectrometry (HEK293T cells [1]; strong albeit not statistically significant hit): 2.3 fold | BRD2 decrease validated by western blot (HEK293T cells [2]): confirmed | BRD protein family members degraded, by PATTERNS ([3]; HEK293T library): degradation of two BRD protein family members, BRD2 and BRD3 | number of proteins significantly affected, by PATTERNS ([3]; HEK293T library): 20 proteins | BRD2 protein level change by SBP ([3]; drug vs DMSO control): significant decrease | BRD2 identification by RNA-Seq (HEK293T cells [4]; [6]): could not be identified | BRD2 decrease validated by FACS of clonal reporter cell line ([5]; stimulated for six hours): confirmed

CC1(C)CC(=O)c2c(C(F)(F)F)nn(-c3ccc(C(N)=O)c(N[C@H]4CC[C@H](O)CC4)c3)c2C1 [SNX2112, SNX-2112]
kinetics of the reduction of MSH6 levels (MSH6; 125 nM, indicated time points): significant depletion in MSH6 levels in under two hours | MSH6-mNeonGreen expression after application of single compounds (MSH6): downregulation | kinetics of the reduction of PRKDC levels (PRKDC): also observed

CC1(C)CC(=O)c2c(C(F)(F)F)nn(-c3ccc(C(N)=O)c(N[C@H]4CC[C@H](OC(=O)CN)CC4)c3)c2C1 [SNX-5422]
MSH6-mNeonGreen expression after application of single compounds (MSH6): downregulation
